Results reported in ChEMBL document CHEMBL3774345, “Synthesis of new diarylamides with pyrimidinyl pyridine scaffold and evaluation of their anti-proliferative effect on cancer cell lines” (Bioorg Med Chem Lett, 2016).

Columns and labels:
SN12C = assay: Cytotoxicity against human SN12C cells assessed as cell growth at 10^-8 M after 24 hrs by SRB assay; type: functional; settings: read-out: Activity
[1] = Cytotoxicity against human HL-60(TB) cells assessed as cell growth at 10^-7 M after 24 hrs by SRB assay; type: functional; settings: HL-60, 24 h, read-out: Activity
[2] = Cytotoxicity against human SNB75 cells assessed as cell growth at 10^-7 M after 24 hrs by SRB assay; type: functional; settings: SNB-75, 24 h, read-out: Activity
Malme-3M = assay: Cytotoxicity against human MALME-3M cells assessed as cell growth at 10^-7 M after 24 hrs by SRB assay; type: functional; settings: read-out: Activity
ACHN [3] = assay: Cytotoxicity against human ACHN cells assessed as cell growth at 10^-7 M after 24 hrs by SRB assay; type: functional; settings: read-out: Activity
NCI-H460 = assay: Cytotoxicity against human NCI-H460 cells after 24 hrs by SRB assay; type: functional; settings: NCI-H460, 24 h
NCI-H522 = assay: Cytotoxicity against human NCI-H522 cells after 24 hrs by SRB assay; type: functional, cell-based; settings: NCI-H522, 24 h
[4] = Cytotoxicity against human SF268 cells assessed as cell growth at 10^-4 M after 24 hrs by SRB assay; type: functional; settings: SF-268, 24 h, read-out: Activity
[5] = Cytotoxicity against human PC3 cells assessed as cell growth at 10^-7 M after 24 hrs by SRB assay; type: functional; settings: PC-3, 24 h, read-out: Activity
[6] = Cytotoxicity against human DU145 cells assessed as cell growth at 10^-7 M after 24 hrs by SRB assay; type: functional; settings: DU-145, 24 h, read-out: Activity
[7] = Cytotoxicity against human BT549 cells assessed as cell growth at 10^-7 M after 24 hrs by SRB assay; type: functional; settings: BT-549, 24 h, read-out: Activity
CCRF-CEM = assay: Cytotoxicity against human CCRF-CEM cells assessed as cell growth at 10^-6 M after 24 hrs by SRB assay; type: functional; settings: read-out: Activity
[8] = Cytotoxicity against human MOLT4 cells assessed as cell growth at 10^-6 M after 24 hrs by SRB assay; type: functional; settings: MOLT-4, 24 h, read-out: Activity
[9] = Cytotoxicity against human Caki1 cells assessed as cell growth at 10^-4 M after 24 hrs by SRB assay; type: functional; settings: CAKI-1, 24 h, read-out: Activity
NCI-H322M [10] = assay: Cytotoxicity against human NCI-H322M cells assessed as cell growth at 10^-6 M after 24 hrs by SRB assay; type: functional; settings: read-out: Activity
[11] = Cytotoxicity against human COLO205 cells assessed as cell growth at 10^-6 M after 24 hrs by SRB assay; type: functional; settings: COLO 205, 24 h, read-out: Activity
[12] = Cytotoxicity against human HCT116 cells assessed as cell growth at 10^-6 M after 24 hrs by SRB assay; type: functional; settings: HCT-116, 24 h, read-out: Activity
[13] = Cytotoxicity against human RXF393 cells assessed as cell growth at 10^-6 M after 24 hrs by SRB assay; type: functional; settings: RXF 393, 24 h, read-out: Activity
SK-MEL-28 [14] = assay: Cytotoxicity against human SK-MEL-28 cells after 24 hrs by SRB assay; type: functional, cell-based; settings: SK-MEL-28, 24 h
[15] = Cytotoxicity against human OVCAR3 cells after 24 hrs by SRB assay; type: functional; settings: OVCAR-3, 24 h
ACHN [16] = assay: Cytotoxicity against human ACHN cells after 24 hrs by SRB assay; type: functional
[17] = Cytotoxicity against human TK10 cells after 24 hrs by SRB assay; type: functional; settings: TK-10, 24 h
MDA-MB-231 = assay: Cytotoxicity against human MDA-MB-231 cells after 24 hrs by SRB assay; type: functional, cell-based; settings: MDA-MB-231, 24 h
[18] = Cytotoxicity against human BT549 cells after 24 hrs by SRB assay; type: functional; settings: BT-549, 24 h
K562 = assay: Cytotoxicity against human K562 cells after 24 hrs by SRB assay; type: functional; settings: K562, 24 h
NCI-H23 = assay: Cytotoxicity against human NCI-H23 cells assessed as cell growth at 10^-5 M after 24 hrs by SRB assay; type: functional; settings: NCI-H23, 24 h, read-out: Activity
NCI-H322M [19] = assay: Cytotoxicity against human NCI-H322M cells assessed as cell growth at 10^-5 M after 24 hrs by SRB assay; type: functional; settings: read-out: Activity
SK-MEL-28 [20] = assay: Cytotoxicity against human SK-MEL-28 cells assessed as cell growth at 10^-5 M after 24 hrs by SRB assay; type: functional; settings: SK-MEL-28, 24 h, read-out: Activity
[21] = Cytotoxicity against human OVCAR4 cells assessed as cell growth at 10^-5 M after 24 hrs by SRB assay; type: functional; settings: OVCAR-4, 24 h, read-out: Activity
[22] = Cytotoxicity against human NCI-ADR-RES cells assessed as cell growth at 10^-5 M after 24 hrs by SRB assay; type: functional; settings: read-out: Activity
[23] = Cytotoxicity against human Caki1 cells assessed as cell growth at 10^-5 M after 24 hrs by SRB assay; type: functional; settings: CAKI-1, 24 h, read-out: Activity
[24] = Cytotoxicity against human PC3 cells assessed as cell growth at 10^-5 M after 24 hrs by SRB assay; type: functional; settings: PC-3, 24 h, read-out: Activity
[25] = read-out: LC50 (the source's name)
[26] = read-out: pLC50 (the source's name) (converted)

Compound `O=C(Nc1cc(-c2cccnc2)nc(NCCCN2CCOCC2)n1)c1cc(Br)cc(C(F)(F)F)c1` has a growth at 0.01 µM (SN12C) of 95%, a growth at 0.1 µM [1] of 96% and a growth at 0.1 µM [2] of 84%. The growth at 0.1 µM (Malme-3M) was 95%, the growth at 0.1 µM (ACHN [3]) was 100% and the GI50 (NCI-H460; read-out: GI50) was 2.97 µM. It also gave a CC50 (NCI-H460; [25]) of 44.1 µM, a TGI (NCI-H460; read-out: TGI) of 8.94 µM and a GI50 (NCI-H460; read-out: pGI50 (converted)) of 2.95 µM. It also gave a CC50 (NCI-H460; [26]) of 43.7 µM, a TGI (NCI-H460; read-out: pTGI (converted)) of 8.91 µM and an IC50 (NCI-H522) of 1.95 µM. The GI50 (NCI-H522; read-out: GI50) was 1.95 µM, the CC50 (NCI-H522; [25]) was 23.3 µM and the TGI (NCI-H522; read-out: TGI) was 5.31 µM. For the same compound, the GI50 (NCI-H522; read-out: pGI50 (converted)) was 1.95 µM, the CC50 (NCI-H522; [26]) was 23.4 µM and the TGI (NCI-H522; read-out: pTGI (converted)) was 5.37 µM. The growth at 100 µM [4] was -88%, the growth at 0.1 µM [5] was 95% and the growth at 0.1 µM [6] was 105%. It also gave a growth at 0.1 µM [7] of 97%, a growth at 1 µM (CCRF-CEM) of 103% and a growth at 1 µM [8] of 102%. It also gave a growth at 100 µM [9] of -100%, a growth at 1 µM (NCI-H322M [10]) of 91% and a growth at 1 µM [11] of 92%. For the same compound, the growth at 1 µM [12] was 94%, the growth at 1 µM [13] was 92% and the IC50 (SK-MEL-28 [14]) was 1.73 µM. It also gave a GI50 (SK-MEL-28 [14]; read-out: GI50) of 1.73 µM, a CC50 (SK-MEL-28 [14]; [25]) of 7.02 µM and a TGI (SK-MEL-28 [14]; read-out: TGI) of 3.48 µM. For the same compound, the GI50 (SK-MEL-28 [14]; read-out: pGI50 (converted)) was 1.74 µM, the CC50 (SK-MEL-28 [14]; [26]) was 7.08 µM and the TGI (SK-MEL-28 [14]; read-out: pTGI (converted)) was 3.47 µM. The GI50 ([15]; read-out: GI50) was 3.7 µM, the CC50 [15, 25] was 35.8 µM and the TGI ([15]; read-out: TGI) was 12.8 µM. It also gave a GI50 ([15]; read-out: pGI50 (converted)) of 3.72 µM, a CC50 [15, 26] of 35.5 µM and a TGI ([15]; read-out: pTGI (converted)) of 12.9 µM. It also gave a GI50 (ACHN [16]; read-out: GI50) of 3.04 µM, a CC50 (ACHN [16]; [25]) of 44.6 µM and a TGI (ACHN [16]; read-out: TGI) of 11.3 µM. The GI50 (ACHN [16]; read-out: pGI50 (converted)) was 3.02 µM, the CC50 (ACHN [16]; [26]) was 44.7 µM and the TGI (ACHN [16]; read-out: pTGI (converted)) was 11.2 µM. For the same compound, the GI50 ([17]; read-out: GI50) was 5.07 µM, the CC50 [17, 25] was 43.3 µM and the TGI ([17]; read-out: TGI) was 18.1 µM. The GI50 ([17]; read-out: pGI50 (converted)) was 5.13 µM, the CC50 [17, 26] was 43.7 µM and the TGI ([17]; read-out: pTGI (converted)) was 18.2 µM. For the same compound, the IC50 (MDA-MB-231) was 1.79 µM, the GI50 (MDA-MB-231; read-out: GI50) was 1.79 µM and the CC50 (MDA-MB-231; [25]) was 8.65 µM. It also gave a TGI (MDA-MB-231; read-out: TGI) of 3.93 µM, a GI50 (MDA-MB-231; read-out: pGI50 (converted)) of 1.78 µM and a CC50 (MDA-MB-231; [26]) of 8.71 µM. For the same compound, the TGI (MDA-MB-231; read-out: pTGI (converted)) was 3.89 µM, the GI50 ([18]; read-out: GI50) was 3.27 µM and the CC50 [18, 25] was 45 µM. For the same compound, the TGI ([18]; read-out: TGI) was 15 µM, the GI50 ([18]; read-out: pGI50 (converted)) was 3.24 µM and the CC50 [18, 26] was 44.7 µM. For the same compound, the TGI ([18]; read-out: pTGI (converted)) was 15.1 µM, the GI50 (K562; read-out: GI50) was 2.81 µM and the CC50 (K562; [25]) was greater than 100 µM. The TGI (K562; read-out: TGI) was 21.7 µM, the GI50 (K562; read-out: pGI50 (converted)) was 2.82 µM and the CC50 (K562; [26]) was greater than 100 µM. The TGI (K562; read-out: pTGI (converted)) was 21.9 µM, the growth at 10 µM (NCI-H23) was 18% and the growth at 10 µM (NCI-H322M [19]) was 19%. It also gave a growth at 10 µM (SK-MEL-28 [20]) of -75%, a growth at 10 µM [21] of 18% and a growth at 10 µM [22] of -4%. The growth at 10 µM [23] was 3% and the growth at 10 µM [24] was 23%.
